How the values were obtained:
[1] = tested on: luciferase with nonsense mutation in a specific codon context (UGAA, UGAC, UAAA or UAAC); test: Western blot of luciferase protein produced by suppression of the nonsense mutation; type: cell-based, Human embryonic kidney cells (293 cells); details: 293 cells treated with compound, continuation lines list further codon contexts
Description: Nonsense suppression activity in an assay as described above is shown in the Table 3 below, for a construct with a UGA nonsense mutation at position 190, followed by a cytosine nucleotide in-frame, (UGAC); for a construct with UAG nonsense mutation at position 190, followed by an adenine nucleotide in-frame, (UAGA); for a construct with […] nonsense mutation at position 190, followed by an adenine nucleotide in-frame, (UAAA); and a construct with a UAA nonsense mutation at position 190, followed by an cytosine nucleotide in-frame, (UAAC). Also included in Table 3 is a column (“western blot”) indicating whether treatment of cells with the indicated compound suppresses the nonsense mutation in a specific codon context (UGAA, UGAC, UAAA or UAAC) in luciferase and results in production of luciferase protein as determined by a positive signal on a western blot. A positive result in the western blot assay is indicated by a “+” and the nonsense codon and context of the codon that is suppressed.
Another assay of the present invention can evaluate compounds that promote nonsense mutation suppression. The luciferase constructs described above in FIG. 1 are engineered to harbor two epitope tags in the N-terminus of the luciferase protein. Based on luciferase protein production, these constructs qualitatively assess the level of translation-readthrough. The presence of the full-length luciferase protein produced by suppression of the premature termination codon is measured by immunoprecipitation of the suppressed luciferase protein (using an antibody against a His tag) followed by western blotting using an antibody against the second epitope (the Xpress™ epitope; Invitrogen®; Carlsbad, Calif.). These constructs are depicted in FIG. 2.
Cells that harbor the constructs of FIG. 2 show increased full-length protein production when treated with a compound of the present invention. After treatment for 20 hours, cells containing the constructs of FIG. 2 are collected and an antibody recognizing the His epitope is used to immunoprecipitate the luciferase protein. Following immunoprecipitation, western blotting is performed using the antibody to the Xpress™ epitope (Invitrogen®; Carlsbad, Calif.) to detect the truncated luciferase (produced when no nonsense suppression occurs) and to detect the full-length protein (produced by suppression of the nonsense codon). Treatment of cells with a test compound produces full-length protein and not a readthrough protein (See e.g., FIG. 3). The readthrough protein is produced if suppression of the normal termination codon occurs. Compounds of the present invention suppress the premature, i.e. nonsense mutation, but not the normal termination codon in the luciferase mRNA.

Structure (SMILES) | melting point | other results
O=C(O)c1cccc(-c2ccn(-c3ccc(OC(F)(F)F)cc3)n2)c1 [Compound 66, 3-[1-(4-Trifluoromethoxy-phenyl)-1H-pyrazol-3-yl]-benzoic acid] | 171 to 174 °C | western blot: production of luciferase protein; + and the codon context that is suppressed ([1]; UAAC codon context construct): UAAC; western blot: production of luciferase protein; + and the codon context that is suppressed ([1]; UGAC codon context construct): +UGAC;
O=C(O)c1ccc(-c2ccn(-c3ccc(C(F)(F)F)cc3)c2)cc1 [Compound 105, 4-[1-(4-Trifluoromethyl-phenyl)-1H-pyrrol-3-yl]-benzoic acid] | 315 to 317 °C | western blot: production of luciferase protein; + and the codon context that is suppressed ([1]; UAAA codon context construct): UAAA; western blot: production of luciferase protein; + and the codon context that is suppressed ([1]; UGAA codon context construct): +; UGAA;; western blot: production of luciferase protein; + and the codon context that is suppressed ([1]; UGAC codon context construct): UGAC;
Cc1ccc(-n2cc(-c3cccc(C(=O)O)c3)cn2)cc1C [Compound 237, 3-[1-(3,4-Dimethyl-phenyl)-1H-pyrazol-4-yl]-benzoic acid] | 196 to 197 °C | western blot: production of luciferase protein; + and the codon context that is suppressed [1]: +; UGAC
O=C(O)c1ccc(-n2cc(-c3ccc(Br)cc3F)nn2)cc1 [Compound 267, 4-[4-(4-Bromo-2-fluoro-phenyl)-[1,2,3]triazol-1-yl]-benzoic acid] | 327 to 328 °C | –
O=C(O)c1ccc(-n2cc(-c3ccc(F)cc3F)nn2)cc1 [Compound 268, 4-[4-(2,4-Difluoro-phenyl)-[1,2,3]triazol-1-yl]-benzoic acid] | 312 to 313 °C | –
O=C(O)c1ccc(-n2cc(-c3ccc(Cl)cc3)nn2)cc1 [Compound 269, 4-[4-(4-Chloro-phenyl)-[1,2,3]triazol-1-yl]-benzoic acid] | 313 to 314 °C | –
O=C(O)c1ccc(-n2cc(-c3ccccc3Br)nn2)cc1 [Compound 270, 4-[4-(2-Bromo-phenyl)-[1,2,3]triazol-1-yl]-benzoic acid] | 261 to 262 °C | –
O=C(O)c1ccc(-n2cc(-c3cccc4ccccc34)nn2)cc1 [Compound 271, 4-(4-Naphthalen-1-yl-[1,2,3]triazol-1-yl)-benzoic acid] | 265 to 266 °C | –
COc1ccc(-c2cn(-c3ccc(C(=O)O)cc3)nn2)cc1OC [Compound 272, 4-[4-(3,4-Dimethoxy-phenyl)-[1,2,3]triazol-1-yl]-benzoic acid] | 253 to 254 °C | –
CCOc1ccc(-c2cn(-c3ccc(C(=O)O)cc3)nn2)cc1 [Compound 273, 4-[4-(4-Ethoxy-phenyl)-[1,2,3]triazol-1-yl]-benzoic acid] | 310 to 311 °C | –
COc1ccc(-c2cn(-c3ccc(C(=O)O)cc3)nn2)c(C)c1 [Compound 274, 4-[4-(4-Methoxy-2-methyl-phenyl)-[1,2,3]triazol-1-yl]-benzoic acid] | 244 to 245 °C | –
CC(C)c1ccc(-c2cn(-c3ccc(C(=O)O)cc3)nn2)cc1 [Compound 275, 4-[4-(4-Isopropyl-phenyl)-[1,2,3]triazol-1-yl]-benzoic acid] | 311 to 312 °C | –
CC(C)c1ccc(-n2nc(-c3ccc(C(=O)O)cc3)oc2=O)cc1 [Compound 276, 4-[4-(4-Isopropyl-phenyl)-5-oxo-4,5-dihydro-[1,3,4]oxadiazol-2-yl]-benzoic acid] | 263 to 267 °C | –
CC(C)c1ccc(-c2nn(-c3ccc(C(=O)O)cc3)c(=O)o2)cc1 [Compound 277, 4-[5-(4-Isopropyl-phenyl)-2-oxo-[1,3,4]oxadiazol-3-yl]-benzoic acid] | 252 to 254 °C | –
CC(C)c1ccc(-c2nn(Cc3ccc(C(=O)O)cc3)c(=O)o2)cc1 [Compound 278, 4-{[5-(4-isopropylphenyl)-2-oxo-1,3,4-oxadiazol-3(2H)-yl]methyl}benzoic acid] | 217 to 219 °C | –
CC(C)c1ccc(-c2nn(-c3cccc(C(=O)O)c3)c(=O)o2)cc1 [Compound 279] | 218 to 220 °C | –
N#Cc1cccc(-c2nn(-c3ccc(C(=O)O)cc3)c(=O)o2)c1 [Compound 280, 4-[5-(3-cyanophenyl)-2-oxo-1,3,4-oxadiazol-3(2H)-yl]benzoic acid] | 294 to 295 °C (dec.) | –
CC(C)c1ccc(-c2nn(-c3ccc(C(=O)O)cc3)c(=O)s2)cc1 [Compound 281, 4-[5-(4-isopropylphenyl)-2-oxo-1,3,4-thiadiazol-3(2H)-yl]benzoic acid] | 205 to 208 °C | –
CC(C)c1ccc(-c2nn(-c3ccc(C(=O)O)cc3)c(=S)s2)cc1 [Compound 282, 4-[5-(4-Isopropyl-phenyl)-2-thioxo-[1,3,4]thiadiazol-3-yl]-benzoic acid] | 176 to 179 °C | –
CC(C)c1ccc(-c2nn(-c3cccc(C(=O)O)c3)c(=S)o2)cc1 [Compound 283, 3-[5-(4-Isopropyl-phenyl)-2-thioxo-[1,3,4]oxadiazol-3-yl]-benzoic acid] | 215 to 217 °C | –
CC(C)c1ccc(-c2nn(-c3cccc(C(=O)O)c3)c(=O)s2)cc1 [Compound 284, 3-[5-(4-Isopropyl-phenyl)-2-oxo-[1,3,4]thiadiazol-3-yl]-benzoic acid] | 220 to 221 °C | –
CC(C)c1ccc(-c2nn(-c3ccc(C(=O)O)cc3)c(=S)o2)cc1 [Compound 285, 4-[5-(4-Isopropyl-phenyl)-2-thioxo-[1,3,4]oxadiazol-3-yl]-benzoic acid] | 239 to 240 °C | –
CC(C)c1ccc(-c2ccn(-c3cccc(C(=O)O)c3)c2)cc1 [Compound 287] | 244 to 245 °C | –

Reference: patent US9051342B2 (priority 2004, dated 2015)
